Measurements reported in ChEMBL document CHEMBL4825735, “Estimation of the lipophilicity of purine-2,6-dione-based TRPA1 antagonists and PDE4/7 inhibitors with analgesic activity” (Bioorg Med Chem Lett, 2021).

Experiment: Lipophilicity, logP of compound by shake flask method
Assay type: physicochemical
Settings: octanol/water

**Q.** For COc1ccc(Cc2nccc3cc(OC)c(OC)cc23)cc1OC [PAPAVERINE], which logP is on record?
**A.** The logP was 3.

Experiment: Relative lipophilicity of the compound in methanol assessed as retardation factor by reversed-phase TLC analysis
Assay type: physicochemical
Settings: not given

**Q.** With COc1nc2c(c(=O)n(C)c(=O)n2C)n1CC(=O)Nc1ccc(C(C)(C)C)cc1 as the compound, how does the Rm read?
**A.** Its Rm is 3.92.

**Q.** Which Rm does the source give for COc1nc2c(c(=O)n(C)c(=O)n2C)n1CCCC(=O)Nc1ccc(C(C)(C)C)cc1 here?
**A.** The Rm was 3.82.

**Q.** Which Rm does the source give for CCCOc1nc2c(c(=O)n(C)c(=O)n2C)n1CCCC(=O)Nc1ccc(C(C)CC)cc1 (configuration not stated) here?
**A.** Its Rm is 4.86.

**Q.** For CCCOc1nc2c(c(=O)n(C)c(=O)n2C)n1CCCC(=O)Nc1ccc(C(C)(C)C)cc1, which Rm is on record?
**A.** Its Rm is 4.81.

**Q.** With COc1nc2c(c(=O)n(C)c(=O)n2C)n1CC(=O)Nc1ccc(C(C)C)cc1 as the compound, how does the Rm read?
**A.** The Rm was 3.28.

**Q.** With CCOc1nc2c(c(=O)n(C)c(=O)n2C)n1CCCC(=O)Nc1ccc(C(C)C)cc1 as the compound, how does the Rm read?
**A.** The Rm was 4.4.

**Q.** With CCOc1nc2c(c(=O)n(C)c(=O)n2C)n1CC(=O)Nc1ccc(C(C)(C)C)cc1 as the compound, how does the Rm read?
**A.** Its Rm is 3.99.

**Q.** With CCOc1nc2c(c(=O)n(C)c(=O)n2C)n1CCCC(=O)Nc1ccc(C(C)(C)C)cc1 as the compound, how does the Rm read?
**A.** Its Rm is 3.84.

**Q.** Which Rm does the source give for CCCOc1nc2c(c(=O)n(C)c(=O)n2C)n1CCCC(=O)Nc1ccc(C(C)C)cc1 here?
**A.** The Rm was 4.4.

**Q.** With CCCCOc1nc2c(c(=O)n(C)c(=O)n2C)n1CCCC(=O)Nc1ccc(C(C)CC)cc1 (configuration not stated) as the compound, how does the Rm read?
**A.** The Rm was 4.7.

**Q.** Which Rm does the source give for CCOc1nc2c(c(=O)n(C)c(=O)n2C)n1CC(=O)Nc1ccc(C(C)C)cc1 here?
**A.** The Rm was 3.86.

**Q.** Which Rm does the source give for COc1nc2c(c(=O)n(C)c(=O)n2C)n1CCCC(=O)Nc1ccc(C(C)C)cc1 here?
**A.** Its Rm is 3.8.

**Q.** For CCCCOc1nc2c(c(=O)n(C)c(=O)n2C)n1CCCC(=O)Nc1cc(C(C)CC)ccc1O (configuration not stated), which Rm is on record?
**A.** Its Rm is 4.87.

**Q.** With CCCOc1nc2c(c(=O)n(C)c(=O)n2C)n1CCCC(=O)Nc1cc(C(C)CC)ccc1O (configuration not stated) as the compound, how does the Rm read?
**A.** Its Rm is 4.52.

**Q.** For CC(=O)Nc1ccc(O)cc1 [ACETAMINOPHEN], which Rm is on record?
**A.** The Rm was 0.31.

**Q.** Which Rm does the source give for CCC1(CC)C(=O)NC(=O)NC1=O [BARBITAL] here?
**A.** The Rm was 0.8.

**Q.** For CCOC(=O)c1ccc(N)cc1 [BENZOCAINE], which Rm is on record?
**A.** Its Rm is 1.92.

**Q.** With O=C(CCCN1CCC(O)(c2ccc(Cl)cc2)CC1)c1ccc(F)cc1 [HALOPERIDOL] as the compound, how does the Rm read?
**A.** Its Rm is 3.61.

**Q.** For CCN(CC)CC(=O)Nc1c(C)cccc1C [LIDOCAINE], which Rm is on record?
**A.** The Rm was 1.31.

**Q.** For COc1ccc(Cc2nccc3cc(OC)c(OC)cc23)cc1OC [PAPAVERINE], which Rm is on record?
**A.** The Rm was 2.79.

**Q.** For CCC1(c2ccccc2)C(=O)NC(=O)NC1=O [PHENOBARBITAL], which Rm is on record?
**A.** Its Rm is 1.9.

**Q.** For O=C1NC(=O)C(c2ccccc2)(c2ccccc2)N1 [PHENYTOIN], which Rm is on record?
**A.** Its Rm is 2.43.

**Q.** Which Rm does the source give for C[C@]12C=CC(=O)C=C1CC[C@@H]1[C@@H]2[C@@H](O)C[C@@]2(C)[C@H]1CC[C@]2(O)C(=O)CO [PREDNISOLONE] here?
**A.** The Rm was 2.49.

**Q.** With Cn1cnc2c1c(=O)[nH]c(=O)n2C [THEOBROMINE] as the compound, how does the Rm read?
**A.** Its Rm is 0.26.

**Q.** For Cn1c(=O)c2[nH]cnc2n(C)c1=O.O [THEOPHYLLINE], which Rm is on record?
**A.** Its Rm is 0.61.

**Q.** With O=c1n(CCCN2CCN(c3cccc(Cl)c3)CC2)nc2ccccn12 [TRAZODONE] as the compound, how does the Rm read?
**A.** Its Rm is 2.65.
